In PubChem BioAssay (NCI):
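Step 1: Grow cells in 96-well plates. Step 2: Expose to compound for 48 hours at 5 concentrations. Step 3: Interpolate endpoints linearly; if unreached, use highest concentration. GI50 = concentration required for 50% inhibition of growth. TGI is the concentration that stops growth completely.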

Columns and labels:
Test in all cases: NCI anticancer screen, dose series, 48 h
CCRF-CEM leukemia = system: CCRF-CEM leukemia
MCF7 breast = system: MCF7 breast
HCT-116 colon = system: HCT-116 colon
SNB-19 CNS = system: SNB-19 CNS
A498 renal = system: A498 renal
HT29 colon = system: HT29 colon
MOLT-4 leukemia = system: MOLT-4 leukemia
786-0 renal = system: 786-0 renal
SK-OV-3 ovarian = system: SK-OV-3 ovarian
NCI-H226 lung = system: NCI-H226 lung
T-47D breast = system: T-47D breast
OVCAR-4 ovarian = system: OVCAR-4 ovarian
SK-MEL-28 melanoma = system: SK-MEL-28 melanoma
RPMI-8226 leukemia = system: RPMI-8226 leukemia
KM12 colon = system: KM12 colon
HOP-62 NSCLC = system: HOP-62 NSCLC
SF-268 CNS = system: SF-268 CNS
K-562 leukemia = system: K-562 leukemia
ACHN renal = system: ACHN renal
U251 CNS = system: U251 CNS
EKVX NSCLC = system: EKVX NSCLC
NCI-H460 lung = system: NCI-H460 lung
OVCAR-3 ovarian = system: OVCAR-3 ovarian
SK-MEL-5 melanoma = system: SK-MEL-5 melanoma
UACC-257 melanoma = system: UACC-257 melanoma
SF-539 CNS = system: SF-539 CNS
SW-620 colon = system: SW-620 colon
MDA-MB-231 breast = system: MDA-MB-231 breast
RXF 393 renal = system: RXF 393 renal
TK-10 renal = system: TK-10 renal
COLO 205 colon = system: COLO 205 colon
NCI/ADR-RES ovarian = system: NCI/ADR-RES ovarian
DU-145 prostate = system: DU-145 prostate
OVCAR-5 ovarian = system: OVCAR-5 ovarian
LOX IMVI melanoma = system: LOX IMVI melanoma
HS 578T breast = system: HS 578T breast
SR leukemia = system: SR leukemia
M14 melanoma = system: M14 melanoma
IGROV1 ovarian = system: IGROV1 ovarian
OVCAR-8 ovarian = system: OVCAR-8 ovarian
CAKI-1 renal = system: CAKI-1 renal
HL-60(TB) leukemia = system: HL-60(TB) leukemia
NCI-H23 lung = system: NCI-H23 lung
PC-3 prostate = system: PC-3 prostate
SK-MEL-2 melanoma = system: SK-MEL-2 melanoma
HOP-92 NSCLC = system: HOP-92 NSCLC
MDA-MB-435 = system: MDA-MB-435
UACC-62 melanoma = system: UACC-62 melanoma
SNB-75 CNS = system: SNB-75 CNS
BT-549 breast = system: BT-549 breast
MALME-3M melanoma = system: MALME-3M melanoma
NCI-H522 lung = system: NCI-H522 lung
HCT-15 colon = system: HCT-15 colon
SF-295 CNS = system: SF-295 CNS
A549 NSCLC = system: A549 NSCLC
UO-31 renal = system: UO-31 renal
HCC-2998 colon = system: HCC-2998 colon
SN12C renal = system: SN12C renal

`CC(=O)N1CCC(Nc2cc(C(=O)NC[C@H](O)CN3CCc4ccccc4C3)ncn2)CC1` showed a GI50 (CCRF-CEM leukemia) of over 100 µM, a TGI (CCRF-CEM leukemia) of over 100 µM and a GI50 (MCF7 breast) of over 100 µM. It also gave a TGI (MCF7 breast) of over 100 µM, a GI50 (HCT-116 colon) of over 100 µM and a TGI (HCT-116 colon) of over 100 µM. The GI50 (SNB-19 CNS) was over 100 µM, the TGI (SNB-19 CNS) was over 100 µM and the GI50 (A498 renal) was over 100 µM. The TGI (A498 renal) was over 100 µM, the GI50 (HT29 colon) was over 100 µM and the TGI (HT29 colon) was over 100 µM. For the same molecule, the GI50 (MOLT-4 leukemia) was over 100 µM, the TGI (MOLT-4 leukemia) was over 100 µM and the GI50 (786-0 renal) was over 100 µM. The TGI (786-0 renal) was over 100 µM, the GI50 (SK-OV-3 ovarian) was over 100 µM and the TGI (SK-OV-3 ovarian) was over 100 µM. It also gave a GI50 (NCI-H226 lung) of over 100 µM, a TGI (NCI-H226 lung) of over 100 µM and a GI50 (T-47D breast) of over 100 µM. It also gave a TGI (T-47D breast) of over 100 µM, a GI50 (OVCAR-4 ovarian) of over 100 µM and a TGI (OVCAR-4 ovarian) of over 100 µM. It also gave a GI50 (SK-MEL-28 melanoma) of over 100 µM, a TGI (SK-MEL-28 melanoma) of over 100 µM and a GI50 (RPMI-8226 leukemia) of over 100 µM. It also gave a TGI (RPMI-8226 leukemia) of over 100 µM, a GI50 (KM12 colon) of over 100 µM and a TGI (KM12 colon) of over 100 µM. The GI50 (HOP-62 NSCLC) was over 100 µM, the TGI (HOP-62 NSCLC) was over 100 µM and the GI50 (SF-268 CNS) was over 100 µM. The TGI (SF-268 CNS) was over 100 µM, the GI50 (K-562 leukemia) was over 100 µM and the TGI (K-562 leukemia) was over 100 µM. The GI50 (ACHN renal) was over 100 µM, the TGI (ACHN renal) was over 100 µM and the GI50 (U251 CNS) was over 100 µM. It also gave a TGI (U251 CNS) of over 100 µM, a GI50 (EKVX NSCLC) of over 100 µM and a TGI (EKVX NSCLC) of over 100 µM. It also gave a GI50 (NCI-H460 lung) of over 100 µM, a TGI (NCI-H460 lung) of over 100 µM and a GI50 (OVCAR-3 ovarian) of over 100 µM. The TGI (OVCAR-3 ovarian) was over 100 µM, the GI50 (SK-MEL-5 melanoma) was over 100 µM and the TGI (SK-MEL-5 melanoma) was over 100 µM. For the same molecule, the GI50 (UACC-257 melanoma) was over 100 µM, the TGI (UACC-257 melanoma) was over 100 µM and the GI50 (SF-539 CNS) was over 100 µM. For the same molecule, the TGI (SF-539 CNS) was over 100 µM, the GI50 (SW-620 colon) was over 100 µM and the TGI (SW-620 colon) was over 100 µM. For the same molecule, the GI50 (MDA-MB-231 breast) was over 100 µM, the TGI (MDA-MB-231 breast) was over 100 µM and the GI50 (RXF 393 renal) was over 100 µM. It also gave a TGI (RXF 393 renal) of over 100 µM, a GI50 (TK-10 renal) of over 100 µM and a TGI (TK-10 renal) of over 100 µM. The GI50 (COLO 205 colon) was over 100 µM, the TGI (COLO 205 colon) was over 100 µM and the GI50 (NCI/ADR-RES ovarian) was over 100 µM. The TGI (NCI/ADR-RES ovarian) was over 100 µM, the GI50 (DU-145 prostate) was over 100 µM and the TGI (DU-145 prostate) was over 100 µM. The GI50 (OVCAR-5 ovarian) was over 100 µM, the TGI (OVCAR-5 ovarian) was over 100 µM and the GI50 (LOX IMVI melanoma) was over 100 µM. For the same molecule, the TGI (LOX IMVI melanoma) was over 100 µM, the GI50 (HS 578T breast) was over 100 µM and the TGI (HS 578T breast) was over 100 µM. For the same molecule, the GI50 (SR leukemia) was over 100 µM, the TGI (SR leukemia) was over 100 µM and the GI50 (M14 melanoma) was over 100 µM. It also gave a TGI (M14 melanoma) of over 100 µM, a GI50 (IGROV1 ovarian) of over 100 µM and a TGI (IGROV1 ovarian) of over 100 µM. It also gave a GI50 (OVCAR-8 ovarian) of over 100 µM, a TGI (OVCAR-8 ovarian) of over 100 µM and a GI50 (CAKI-1 renal) of over 100 µM. The TGI (CAKI-1 renal) was over 100 µM, the GI50 (HL-60(TB) leukemia) was over 100 µM and the TGI (HL-60(TB) leukemia) was over 100 µM. It also gave a GI50 (NCI-H23 lung) of over 100 µM, a TGI (NCI-H23 lung) of over 100 µM and a GI50 (PC-3 prostate) of over 100 µM. The TGI (PC-3 prostate) was over 100 µM, the GI50 (SK-MEL-2 melanoma) was over 100 µM and the TGI (SK-MEL-2 melanoma) was over 100 µM. It also gave a GI50 (HOP-92 NSCLC) of 91.9 µM, a TGI (HOP-92 NSCLC) of over 100 µM and a GI50 (MDA-MB-435) of over 100 µM. It also gave a TGI (MDA-MB-435) of over 100 µM, a GI50 (UACC-62 melanoma) of over 100 µM and a TGI (UACC-62 melanoma) of over 100 µM. It also gave a GI50 (SNB-75 CNS) of over 100 µM, a TGI (SNB-75 CNS) of over 100 µM and a GI50 (BT-549 breast) of over 100 µM. It also gave a TGI (BT-549 breast) of over 100 µM, a GI50 (MALME-3M melanoma) of over 100 µM and a TGI (MALME-3M melanoma) of over 100 µM. It also gave a GI50 (NCI-H522 lung) of over 100 µM, a TGI (NCI-H522 lung) of over 100 µM and a GI50 (HCT-15 colon) of over 100 µM. It also gave a TGI (HCT-15 colon) of over 100 µM, a GI50 (SF-295 CNS) of over 100 µM and a TGI (SF-295 CNS) of over 100 µM. It also gave a GI50 (A549 NSCLC) of over 100 µM, a TGI (A549 NSCLC) of over 100 µM and a GI50 (UO-31 renal) of over 100 µM. It also gave a TGI (UO-31 renal) of over 100 µM, a GI50 (HCC-2998 colon) of over 100 µM and a TGI (HCC-2998 colon) of over 100 µM. The GI50 (SN12C renal) was over 100 µM and the TGI (SN12C renal) was over 100 µM.
